US10738101B2, “Method for selecting odor-controlling substance” (Kao Corporation, priority 2015, dated 2020)

Columns and labels:
ethyl vanillin odor = test: Sensory test of cross-adaptation, target odor ethyl vanillin; format: in vivo, human; settings: panelists
OR1A1 = target: T1, OR1A1 (Homo sapiens, UniProt Q9P1Q5); test: Luciferase reporter gene assay, OR1A1-expressing HEK293 cells; format: cell-based; settings: screen, muscone 100 μM, FIG. 1
T1 construct: expressed in transfected cells; host or cells: HEK293
T1 sequence (Q9P1Q5 1-309): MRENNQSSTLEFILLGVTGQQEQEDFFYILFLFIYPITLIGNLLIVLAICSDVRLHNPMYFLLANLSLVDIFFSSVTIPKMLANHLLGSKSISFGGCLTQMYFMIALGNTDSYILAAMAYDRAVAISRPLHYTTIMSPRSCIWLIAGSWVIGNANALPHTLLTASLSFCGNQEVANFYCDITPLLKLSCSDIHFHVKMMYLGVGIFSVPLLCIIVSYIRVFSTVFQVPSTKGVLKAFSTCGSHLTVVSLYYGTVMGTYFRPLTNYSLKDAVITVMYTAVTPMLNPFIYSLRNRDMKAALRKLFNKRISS
Excerpt: On the basis of sequence information registered in GenBank, genes respectively encoding 370 human olfactory receptors shown in Tables 1-1 and 1-2 and genes respectively encoding the human olfactory receptors OR5AN1, OR10G4 and OR9Q2 (respectively set forth in SEQ ID NOS: 1, 3 and 5) were cloned. Each of the genes was cloned by the PCR using human genomic DNA person (G1521: Promega) as a template. Each gene amplified by the PCR was incorporated into a pENTR vector (Invitrogen) in accordance with the instruction, and was recombined to NotI and AscI sites produced downstream from a Flag-Rho tag sequence on a pME18S vector by using NotI and AscI sites present on the pENTR vector.
In 1) of Example 1, HEK293 cells on which the 370 human olfactory receptors were respectively expressed were produced. A reaction solution having a composition shown in Table 2 was prepared and allowed to stand still in a clean bench for 15 minutes, and the resultant was added by 4.4 μL per well in a 384-well plate (BioCoat). Subsequently, the HEK293 cells (20×10^4 cells/cm^2) were seeded by 40 μL per well, and the resultant was cultured for 24 hours in an incubator kept at 37° C. and 5% CO2.
In 2) of Example 1 and Examples 2 and 3, HEK293 cells in which the human olfactory receptor OR5AN1, OR10G4, OR9Q2 or OR1A1 was expressed were produced. […]
The olfactory receptor expressed on the HEK293 cells increases the intracellular cAMP amount by activating adenylate cyclase in conjugation with intracellular Gαs. In the measurement of odor response in this study, luciferase reporter gene assay for monitoring the increase of the intracellular cAMP amount as a luminescence value derived from a firefly luciferase gene (fluc2P-CRE-hygro) was employed. […] Under each of various stimulation conditions, a value fLuc/hRluc obtained by dividing a firefly luciferase-derived luminescence value by a Renilla luciferase-derived luminescence value was calculated. […] A dose-response curve was analyzed using Graph Pad Prism. […]

odor of guaiacol = test: Sensory test of cross-adaptation, target odor guaiacol; format: in vivo, human; settings: panelists, test sample smelled before target sample, FIG. 6B
Experimental: The cross-adaptation effect induced by the odorous substance evaluated in Example 2 was estimated by a sensory test. A glass bottle (No. 11, manufactured by Hakuyo Glass Co., Ltd., capacity: 110 mL) was charged with a target odorous substance to be used as a target sample. As the target odorous substance, muscone, guaiacol or p-cresol was used. As the muscone, a cotton ball soaked with 1 mg of muscone was used. As the guaiacol and p-cresol, 1 mL of a mineral oil (Sigma-Aldrich) solution in a concentration of 10 ppm was used. In a similar manner, a glass bottle was charged with a test substance to be used as a test sample. As the test sample, 5 mg of an ethyl vanillin powder, or 1 mL of a mineral oil (Sigma-Aldrich) solution of p-cresyl acetate, p-cresyl isobutyrate or p-methyl quinoline prepared to a concentration of 1,000 ppm was used.
The sensory test was performed by a single blind method by five to eight panelists. The target sample was first presented to each panelist, who was caused to replay on the odor intensity. Next, the test sample was presented for 2 minutes or until the odor could not be perceived. Thereafter, the target sample was presented again, and the panelist was caused to replay on the odor intensity. This series of operations was defined as one set, and the sensory test was carried out with four sets per day per panelist set as the upper limit. […]

C[C@@H]1CCCCCCCCCCCCC(=O)C1 [muscone, (R)-3-methyl-1-cyclopentadecanone]
cross-adaptation of ethyl vanillin odor induced by test substance (ethyl vanillin odor): not induced | responsiveness of OR1A1 compared with OR5AN1 (OR1A1): weaker responsiveness | cross-adaptation of guaiacol odor induced by test substance (odor of guaiacol): not induced
